Test results taken from patent publication US20250320496A1, “MODULATION OF ABCB11 GENE TRANSCRIPTION USING ANTISENSE OLIGONUCLEOTIDES TARGETING REGULATORY RNAS” (CAMP4 Therapeutics Corporation, priority 2022, published 2025).
Strand notation (5' to 3'): a small letter for the sugar, then the base; units joined by * are phosphorothioate-linked, units joined directly phosphodiester-linked; [ ] holds rarer units or linkages, { } end groups; capitals alone tell only the bases. e = 2'-O-(2-methoxyethyl) (MOE); l = locked nucleic acid (LNA); [5mC] = 5-methylcytosine; d = 2'-deoxy (DNA)

Key:
CYP7A1 mRNA = assay: ASO treatment of primary human hepatocytes (PHH), CYP7A1 mRNA by RT-qPCR normalized to B2M; format: cell-based; details: for expression of CYP7A1 mRNA, dose response: PHHs (FIG. 3B); for CYP7A1 mRNA levels, dose response: PHHs, Day 4, relative to B2M (FIG. 5B)
Procedure: Primary human hepatocytes (PHH) were thawed using Lonza Human Cryopreserved Hepatocyte Thawing Medium and plated in 96-well collagen-coated plates (5.5-6.0×10^4 cells per well). Four hours later, the media was replaced with sterile-filtered QualGro™ Hepatocyte Culture Medium (BioIVT) containing antibiotic supplement, 0.3 mg/ml Matrigel® matrix (Corning®), and ASO at the desired concentration (e.g., 1.25 μM, 2.5 μM, 5 μM, or 10 μM). […] Plates were frozen at-80° C. during cell lysis. After thawing, total RNA was isolated using the Qiagen RNEasy kit as instructed by manufacturer. cDNA (random-primed) was synthesized from 10 μl of RNA using the LifeTech High Capacity cDNA Reverse Transcription kit. 2 μl of cDNA was used for reverse transcription-quantitative PCR (RT-qPCR) analyses using standard Taqman” reagents from Applied Biosystems™ to measure ABCB11 and CYP7A1 gene expression. Gene expression data was normalized to the housekeeper gene, beta-2-microglobulin (B2M).
ASOs targeting ABCB11 regRNA enhance bile acid efflux in vitro. Levels of cholesterol 7 alpha-hydroxylase (CYP7A1) mRNA (or the enzymatic activity of its protein) can be used to track changes in bile acid synthesis in the liver since the CYP7A1 protein is the first and rate-limiting step in the conversion of cholesterol to bile acids (see, e.g., Chiang and Ferrel (2020) Liver Res. 4 (2): 47-63). […] Conversely, when bile acid levels reach high levels, this gene is actively down regulated. These changes are mediated by farnesoid X receptor (FXR), a sensor of bile acid levels, and the master regulator of intracellular bile acid concentrations. CYP7A1 mRNA can therefore be used as a surrogate for monitoring changes in hepatic bile acids in response to ASO treatment. Accordingly, an ASO that successfully increases ABCB11 expression would be expected to promote increased bile acid efflux, thus reducing bile acid levels in the cell. In a wild-type (non-disease) setting, this reduction promotes a compensatory increase in CYP7A1 to restore normal levels.

human ABCB11 mRNA = assay: ASO treatment of primary human hepatocytes (PHH), ABCB11 mRNA by RT-qPCR normalized to B2M; format: cell-based; set-up: ABCB11 mRNA, dose titration: unit of the concentration uncertain; details: for ABCB11 mRNA expression, dose response / ABCB11 mRNA, dose titration: PHHs; for ABCB11 mRNA expression, dose response: Day 4 after ASO treatment (FIG. 5A); for ABCB11 mRNA, dose titration: CO-3986 and CO-4529 tested at 2.5 (unit uncertain), 5 μM, and 10 μM; for ABCB11 mRNA FC (5 μM ASO vs. UNT) / ABCB11 FC mRNA (5 μM ASO vs. untreated): primary human hepatocytes; for ABCB11 mRNA FC (5 μM ASO vs. UNT): normalized to untreated PHHs (UNT); for ABCB11 FC mRNA (5 μM ASO vs. untreated): 5 μM ASO with PO-modifications, normalized to untreated hepatocytes
Outline: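 Plated primary human hepatocytes were treated 4 h post-thaw with ASO (e.g., 1.25–10 μM; initial screen 5 μM) in medium containing 0.3 mg/ml Matrigel for 72 hrs. Total RNA was reverse-transcribed and ABCB11 mRNA measured by Taqman RT-qPCR, normalized to B2M, with fold change versus untreated PHHs.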

[1] = PHHs treated for two days, collected Day 2 to Day 7, result on Day 4

Substance	ABCB11 mRNA FC (5 μM ASO vs. UNT) (human ABCB11 mRNA) [fold change]	other results
CO-4535: ASO targeting eRNA RR64 (RR64_v2) of human ABCB11 (antisense eT*eG*eG*e[5mC]*eG*eT*eT*eA*eT*eT*eA*eA*eT*eT*e[5mC]*eT*eA*e[5mC]*eA*eG)		expression of CYP7A1 mRNA, dose response (CYP7A1 mRNA): increased expression of CYP7A1 mRNA in a dose-dependent manner; CYP7A1 mRNA, time course (CYP7A1 mRNA; [1]): strong ABCB11 and CYP7A1 mRNA upregulation; CYP7A1 mRNA levels, dose response (CYP7A1 mRNA): dose-responsive increases; ABCB11 mRNA, time course (human ABCB11 mRNA; [1]): strong ABCB11 and CYP7A1 mRNA upregulation; ABCB11 mRNA expression, dose response (human ABCB11 mRNA): dose-responsive increase; ABCB11 mRNA, dose titration (human ABCB11 mRNA): dose-dependent increase
CO-4513: ASO targeting a downstream regRNA from enhancer RR62_v2 (antisense eG*eT*eG*eA*eG*eG*e[5mC]*eA*eT*e[5mC]*eA*eG*eG*eT*eA*eA*eG*eT*eT*e[5mC])	1.122	CYP7A1 mRNA levels, dose response (CYP7A1 mRNA): dose-responsive increases; ABCB11 mRNA expression, dose response (human ABCB11 mRNA): dose-responsive increase
CO-4556: ASO targeting eRNA RR74 (RR74_v1) of human ABCB11 (antisense eG*eA*eA*eG*eG*eA*e[5mC]*eA*e[5mC]*eA*eA*eT*eT*eT*e[5mC]*eT*eG*eT*eA*eG)		expression of CYP7A1 mRNA, dose response (CYP7A1 mRNA): increased expression of CYP7A1 mRNA in a dose-dependent manner; CYP7A1 mRNA levels, dose response (CYP7A1 mRNA): dose-responsive increases; ABCB11 mRNA expression, dose response (human ABCB11 mRNA): dose-responsive increase; ABCB11 mRNA, dose titration (human ABCB11 mRNA): dose-dependent increase
CO-7022 (antisense eT*e[5mC]*eT*eG*eG*dA*dA*dA*dA*dT*dA*dA*dT*dG*d[5mC]*e[5mC]*eT*eT*eT*e[5mC])	1.224	
CO-12754 (antisense eG*eT*eGeA*eG*eGe[5mC]*eA*eTe[5mC]*eA*eGeG*eT*eAeA*eG*eTeT*e[5mC])		ABCB11 FC mRNA (5 μM ASO vs. untreated) (human ABCB11 mRNA): 1.04 fold change
CO-6968 (antisense eT*eG*eG*eA*eT*dG*dT*dA*dG*dA*dT*dG*dA*dA*dT*eG*eG*e[5mC]*eA*eA)	1.373	
CO-12745 (antisense eG*eT*eG*eA*eGeGe[5mC]*eA*eT*e[5mC]*eA*eG*eG*eTeAeA*eG*eT*eT*e[5mC])		ABCB11 FC mRNA (5 μM ASO vs. untreated) (human ABCB11 mRNA): 0.92 fold change
CO-7206 (eT*eT*eG*eG*e[5mC]*lG*dT*dT*lA*dT*dT*dA*dA*lT*dT*d[5mC]*lT*eA*e[5mC]*eA*eG*eA; antisense)	1.164	
CO-4525 (antisense eA*e[5mC]*e[5mC]*e[5mC]*eA*e[5mC]*eA*eT*eA*eG*eT*eT*eG*eT*eA*e[5mC]*eT*e[5mC]*eT*e[5mC])	0.995	
CO-7182: derivative ASO with additional chemical modifications based on parent ASO CO-4529 (antisense eG*eT*eG*lG*eA*eG*e[5mC]*lA*eA*eA*e[5mC]*lT*eA*eG*eG*l[5mC]*eA*e[5mC]*eT*eG)	1.572	
CO-7099 (eA*eT*e[5mC]*eT*eG*eG*eA*eA*eA*eA*eT*eA*eA*eT*eG*e[5mC]*e[5mC]*eT*eT*eT*e[5mC]*eT; antisense)	0.882	
CO-4504 (antisense eG*eT*eG*eT*e[5mC]*eT*eA*eT*eT*eT*eG*eG*eT*eA*eT*e[5mC]*eA*eG*eA*e[5mC])	1.232	
CO-4057 (antisense e[5mC]*eA*eG*e[5mC]*eA*e[5mC]*eA*eA*eA*eT*eA*eT*eA*eT*eT*eG*eG*eA*eG*eG)	1.245	
CO-6674 (antisense eT*eG*eG*eA*eA*eG*eG*eA*e[5mC]*eA*e[5mC]*eA*eA*eT*eT*eT*e[5mC]*eT*eG*eT)	1.175	
CO-7153 (antisense eA*e[5mC]*e[5mC]*eT*eT*eA*eG*eG*eA*eG*eG*eA*eT*eT*eA*eT*eT*eT*eA*eA*e[5mC]*e[5mC]*eT*e[5mC])	1.409	
CO-7017 (antisense eA*eA*eG*eT*eG*eA*eG*dG*d[5mC]*dA*dT*d[5mC]*dA*dG*dG*dT*dA*eA*eG*eT*eT*e[5mC]*e[5mC]*eT)	1.182	
CO-7028 (antisense eA*e[5mC]*e[5mC]*eG*eA*e[5mC]*eA*eG*eT*eG*eA*eG*e[5mC]*eT*eT*eA*eT*e[5mC]*eT*eG)	1.49	
CO-6991 (antisense eT*eG*eG*eA*lT*eG*eT*eA*lG*eA*eT*eG*lA*eA*eT*eG*lG*e[5mC]*eA*eA)	1.193	
CO-7110 (eT*eA*e[5mC]*eA*eT*eT*eT*dA*dG*dA*dG*dA*d[5mC]*dA*dA*dA*dG*eA*eA*eT*e[5mC]*eG*e[5mC]*eT; antisense)	1.035	
